Key:
[1] = tested on: P. acnes ATCC 6919 linoleate isomerase; assay: Effect of cofactors, metals, chelators and sulfhydryl reagents on isomerase activity of crude soluble enzyme preparation; type: biochemical, Propionibacterium acnes; details: for effect of possible cofactor on isomerase activity: 60 minute assays
Experimental: A number of possible cofactors were tested for their effect on isomerase activity, including NAD, NADH, NADP, NADPH, FAD, FMN, ADP, ATP and glutathione.
(§1) Generally, the isomerase was assayed using an endpoint assay after 30 to 60 minutes incubation at room temperature. FIG. 18 (time course assay at different linoleic acid levels) and FIG. 19 (end point assay at different linoleic acid levels) show the effect of increasing substrate concentration on formation of […].

[2] = tested on: Lactobacillus reuteri PYR8 9,11 linoleate isomerase (whole cells); assay: Whole-cell biotransformation of linoleic acid, effect of product and substrate on isomerase; type: cell-based; details: 700 ppm CLA from recycled reaction broth, 1000 ppm linoleic acid
Excerpt: The following example describes the determination of conditions to improve enzyme stability and performance and on testing the limitations of the biotransformation process. Whole cells of L. reuteri PYR8 were used in all biotransformation experiments described below.
The effect of substrate and product on the enzyme performance was also investigated, as well as the possibility of recycling the cells. The effect of CLA on the reaction was studied by adding different concentrations of either a mixture of isomers (Sigma material, approximately 41% 9,11 isomer and 48% 10,12 CLA), or just 9,11 CLA (Matreya material, approximately 77% 9,11 CLA). Concentrations from 500 to 3000 ppm were tested. Some experiments were also performed recycling the broth from a previous biotransformation reaction with L. reuteri PYR8, resulting in an initial CLA concentration around 700 ppm. In every case, 1000 ppm linoleic acid were added. […] In the same period, almost complete conversion of the linoleic acid was obtained in the control without exogenous CLA. However, the effect was not detected when the CLA present came from recycled reaction broth. […] The results may indicate that some of the impurities present in the chemically produced CLA may be stronger inhibitors of the 9,11 isomerase than the product itself. […]

[3] = tested on: C. sporogenes ATCC 25762 linoleate isomerase; assay: Effect of additives, buffer components and detergents on C. sporogenes isomerase activity; type: biochemical, Clostridium sporogenes
Experimental: It has been reported that solubilization in the presence of lysophosphatidylcholine (LPC) allows higher detergent concentrations to be used, thus allowing more complete membrane protein solubilization. CaCl2 can activate enzymes, such as some nucleases.
A third nonionic detergent, octyl glucoside (OG) was tested for its ability to solubilize the C. sporogenes linoleate isomerase.

L. reuteri PYR8 = assay: Whole cell biotransformation of linoleic acid to CLA; type: cell-based, Lactobacillus reuteri; details: for (cis,trans)-9,11-CLA formation on addition of nonionic detergent: detergents added to 0.1-0.5% final concentration
Experimental: Cultures were grown and harvested as described above. Washed cells were resuspended in either fresh growth medium or 0.1 M Tris pH 8.0 buffer containing linoleic acid at various concentrations.
Samples were taken at appropriate intervals and analyzed for CLA as described in Example 2. In some experiments, various detergents were added to 0.1-0.5% final concentration. […] About 5 mL solvent was added to about 20 mL aqueous cell suspension in a 125 mL baffled shake flask incubated at room temperature.
Linoleic acid was added as 99% LA, dissolved in propyleneglycol (100 mg/ml solution) or emulsified with 0.5, 5 or 30% lecithin. The emulsion was prepared by blending the linoleic acid and the lecithin with the reaction medium before the addition of the cells. Linoleic acid was added at 1000 and 2000 ppm.
In the second experiment, cell recycle was studied with cells that have performed the biotransformation at different levels of linoleic acid. Cells were harvested, resuspended in breakage buffer at a 10-fold concentration, and linoleic acid was added at 1000, 1500, 2000, 2500 and 3000 ppm level. Given the higher linoleic acid concentration, the reaction was allowed to proceed for six hours. […] 1000 ppm linoleic acid were added and the reaction was followed for four hours.

9,11 linoleate isomerase = assay: Test of possible inducers of the 9,11 linoleate isomerase in the growth medium; type: cell-based, Lactobacillus reuteri; details: 100 mg/l in the growth medium
Experimental: Several substances were tested as possible inducers of the 9,11 linoleate isomerase. The materials tested included: lauric acid, myristic acid, palmitic acid, palmitoleic acid, oleic acid, linoleic acid, linolenic acid, oleic acid stearyl ester, linoleyl alcohol, linoleic acid methyl ester, linoleic acid ethyl ester, stearic acid and linoleic acid methyl ester. They were added to the growth medium at a 100 mg/l level.

linoleate isomerase = type: biochemical; details: pH optimum of about 7.5
[4] = target: T1, Propionibacterium acnes ATCC 6919 linoleate isomerase (10,12-linoleate isomerase) (Cutibacterium acnes, UniProt Q6A8X5); assay: Linoleate isomerase activity in crude soluble extract, effect of cofactors, chelators, sulfhydryl reagents and substrate level; type: biochemical; details: increasing linoleic acid levels, FIGS. 18 and 19
T1 construct: gene not cloned in this document
Experimental: (§2) About 50 to about 250 μL of enzyme sample was added to 1.5 mL of enzyme assay buffer for reaction. About 1 to about 2 mL of aqueous phase was separated from the enzyme reaction and was extracted with about 3 mL of hexane. […] Depending on the level of activity, assay mixtures of chromatography fractions were incubated at room temperature from about 1 to about 24 hours before extraction with hexane.
Enzyme extracts were prepared by French Press and the extract fractionated as outlined in FIG. 15. Taking the total isomerase activity in fraction A as 100%, over 93% of the activity was detected in the soluble protein fraction (B) Less than 1% of the isomerase activity was found in the washed pellet, or membrane fraction (C). Approximately 2% of the activity was located in the buffer fraction (D), after the pellet washing and centrifugation steps. Thus, the P. acnes isomerase clearly is not a membrane protein, unlike the isomerase activities in L. reuteri PYR8 and other strains examined to date.
Calcium and magnesium also had no effect.
as §1

[5] = tested on: Clostridium sporogenes ATCC 25762 linoleate isomerase; assay: Linoleate isomerase activity versus linoleic acid concentration; type: biochemical; details: tested from 0 to 100 ppm, FIG. 26
Experimental: as §2
Temperature optimization with crude extracts was carried out at 4° C., room temperature (˜25° C.) and 37° C. The best temperature for the isomerase activity was room temperature (FIG. 25). The isomerase activity decreased to 73% of optimum at 4° C. and 63% of optimum at 37° C.
The concentration of linoleic acid was tested from 0 to 100 ppm (FIG. 26). The optimum concentration for linoleic add was determined to be 40 ppm.

[6] = tested on: isolated linoleate isomerase (source organism not stated with the values); assay: Michaelis-Menten kinetics of isolated linoleate isomerase (linoleic acid substrate, oleic acid inhibition)

T1 sequence (Q6A8X5 entry or part of it): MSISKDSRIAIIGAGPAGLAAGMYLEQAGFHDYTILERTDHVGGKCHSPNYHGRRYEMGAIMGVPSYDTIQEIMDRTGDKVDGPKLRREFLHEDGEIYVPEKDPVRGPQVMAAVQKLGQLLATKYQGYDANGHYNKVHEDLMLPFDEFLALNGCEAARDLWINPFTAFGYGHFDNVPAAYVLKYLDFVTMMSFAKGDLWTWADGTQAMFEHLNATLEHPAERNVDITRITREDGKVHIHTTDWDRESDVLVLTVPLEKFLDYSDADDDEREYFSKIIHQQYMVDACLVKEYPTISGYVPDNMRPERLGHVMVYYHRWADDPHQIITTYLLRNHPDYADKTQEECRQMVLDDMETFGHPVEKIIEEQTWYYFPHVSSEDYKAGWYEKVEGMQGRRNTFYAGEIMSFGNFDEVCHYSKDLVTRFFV

c1cnc2c(c1)ccc1cccnc12 [1,10-phenanthroline]
inhibition of isomerase activity ([1]; 1 mM): not inhibited

Nc1ncnc2c1ncn2[C@@H]1O[C@H](COP(=O)(O)OP(=O)(O)O)[C@@H](O)[C@H]1O [ADP]
effect of possible cofactor on isomerase activity [1]: No significant effect

CCCCCC/C=C/C=C\CCCCCCCC(=O)O [CLA]
effect of CLA from recycled reaction broth on conversion rate [2]: no difference in conversion rate

[Ca+2].[Cl-].[Cl-] [CaCl2]
effect on enzyme activity ([3]; Tris and phosphate buffer systems): decreased the enzyme activity | effect on enzyme activity ([3]; temperatures higher than 37° C.): no effect on the activity

[Ca] [Calcium]
effect of metal on isomerase activity [1]: no effect

Cc1cc2nc3c(=O)[nH]c(=O)nc-3n(C[C@H](O)[C@H](O)[C@H](O)COP(=O)(O)OP(=O)(O)OC[C@H]3O[C@@H](n4cnc5c(N)ncnc54)[C@H](O)[C@@H]3O)c2cc1C [FAD]
effect of possible cofactor on isomerase activity [1]: No significant effect

Cc1cc2nc3c(=O)[nH]c(=O)nc-3n(C[C@H](O)[C@H](O)[C@H](O)COP(=O)(O)O)c2cc1C [FMN]
effect of possible cofactor on isomerase activity [1]: No significant effect

CCN1C(=O)C=CC1=O [N-ethylmaleimide]
inhibition of isomerase activity ([1]; 100 μM): not inhibited

NC(=O)C1=CN([C@@H]2O[C@H](COP(=O)(O)OP(=O)(O)OC[C@H]3O[C@@H](n4cnc5c(N)ncnc54)[C@H](O)[C@@H]3O)[C@@H](O)[C@H]2O)C=CC1 [NADH]
effect of possible cofactor on isomerase activity [1]: No significant effect

NC(=O)C1=CN([C@@H]2O[C@H](COP(=O)(O)OP(=O)(O)OC[C@H]3O[C@@H](n4cnc5c(N)ncnc54)[C@H](OP(=O)(O)O)[C@@H]3O)[C@@H](O)[C@H]2O)C=CC1 [NADPH]
effect of possible cofactor on isomerase activity [1]: No significant effect

NC(=O)c1ccc[n+]([C@@H]2O[C@H](COP(=O)([O-])OP(=O)(O)OC[C@H]3O[C@@H](n4cnc5c(N)ncnc54)[C@H](OP(=O)(O)O)[C@@H]3O)[C@@H](O)[C@H]2O)c1 [NADP]
effect of possible cofactor on isomerase activity [1]: No significant effect

NC(=O)c1ccc[n+]([C@@H]2O[C@H](COP(=O)([O-])OP(=O)(O)OC[C@H]3O[C@@H](n4cnc5c(N)ncnc54)[C@H](O)[C@@H]3O)[C@@H](O)[C@H]2O)c1 [NAD]
effect of possible cofactor on isomerase activity [1]: No significant effect

CCCCCCCCO[C@@H]1O[C@H](CO)[C@@H](O)[C@H](O)[C@H]1O [OG, octyl glucoside]
isomerase specific activity higher than that of OTGP solubilized isomerase ([3]; 1.5% (2×critical micelle concentration)): about 20%

CCCCCCCC/C=C\CCCCCCCC(=O)OCCOCC(OCCO)C1OCC(OCCO)C1OCCO (stereo not shown) [Tween-80]
(cis,trans)-9,11-CLA formation on addition of nonionic detergent (L. reuteri PYR8): does not significantly increase

N[C@@H](CCC(=O)N[C@@H](CS)C(=O)NCC(=O)O)C(=O)O [glutathione]
effect of possible cofactor on isomerase activity [1]: No significant effect

OCC(O)CO [glycerol]
increase in activity on increasing the concentration ([3]; extraction buffer): 30%

CCCCCCCCCCCC(=O)O [lauric acid]
effect as inducer on expression and/or activity of the isomerase (9,11 linoleate isomerase): No positive effect

CCCCC/C=C\C/C=C\CCCCCCCC(=O)OCC [linoleic acid ethyl ester]
effect as inducer on expression and/or activity of the isomerase (9,11 linoleate isomerase): No positive effect

CCCCC/C=C\C/C=C\CCCCCCCC(=O)OC [linoleic acid methyl ester]
effect as inducer on expression and/or activity of the isomerase (9,11 linoleate isomerase): No positive effect

CCCCC/C=C\C/C=C\CCCCCCCC(=O)O [linoleic acid, (cis,cis)-9,12-linoleic acid]
Km (linoleate isomerase; read-out: Km for linoleic acid): ~8.1 µM | substrate inhibition (L. reuteri PYR8; up to 3000 ppm linoleic acid, cells 10-fold concentrated in breakage buffer): no substrate inhibition was detected | effect as inducer on expression and/or activity of the isomerase (9,11 linoleate isomerase): No positive effect | substrate inhibition by linoleic acid [4]: not subject to the same type of substrate inhibition | optimum concentration for linoleic acid [5]: 40 ppm | linoleic acid concentration at which initial velocity decreases [6]: about 60 μM

CCCCC/C=C\C/C=C\CCCCCCCCO [linoleyl alcohol]
effect as inducer on expression and/or activity of the isomerase (9,11 linoleate isomerase): No positive effect

[Mg] [magnesium]
effect of metal on isomerase activity [1]: no effect

CCCCCCCCCCCCCC(=O)O [myristic acid]
effect as inducer on expression and/or activity of the isomerase (9,11 linoleate isomerase): No positive effect

CCCCCCCC/C=C\CCCCCCCC(=O)OCCCCCCCCCCCCCCCCCC [oleic acid stearyl ester]
effect as inducer on expression and/or activity of the isomerase (9,11 linoleate isomerase): No positive effect

CCCCCCCC/C=C\CCCCCCCC(=O)O [oleic acid]
Ki (linoleate isomerase; read-out: Ki for oleic acid): ~80 µM | effect as inducer on expression and/or activity of the isomerase (9,11 linoleate isomerase): No positive effect

O=C(O)c1cc[c]([Hg][Cl])cc1 [p-chloromercuribenzoate]
inhibition of isomerase activity ([1]; 5 μM): not inhibited

CCCCCCCCCCCCCCCC(=O)O [palmitic acid]
effect as inducer on expression and/or activity of the isomerase (9,11 linoleate isomerase): No positive effect

CCCCCC/C=C\CCCCCCCC(=O)O [palmitoleic acid]
effect as inducer on expression and/or activity of the isomerase (9,11 linoleate isomerase): No positive effect

CCCCCCCCCCCCCCCCCC(=O)O [stearic acid]
effect as inducer on expression and/or activity of the isomerase (9,11 linoleate isomerase): No positive effect

Triton X-100
(cis,trans)-9,11-CLA formation on addition of nonionic detergent (L. reuteri PYR8): does not significantly increase

Source: patent US6743609B1, “Linoleate isomerase” (Arkion Life Sciences LLC, priority 1997, dated 2004)
